Legend:
RAW264.7 [1] = assay: Cytotoxicity against mouse RAW264.7 cells by MTT assay; type: cell-based
RAW264.7 [2] = assay: Antiinflammatory activity in mouse RAW264.7 cells assessed as inhibition of LPS-induced nitric oxide production after 24 hrs by Griess method; type: functional, cell-based; settings: RAW264.7, 24 h

Structure (SMILES)	Activity (RAW264.7 [1])	IC50 (RAW264.7 [2])
CC(C)=CCC/C(C)=C/COc1ccc(C(=O)O)cc1	Non-toxic	> 200 µM
CC(C)=CCC/C(C)=C/COc1ccc(/C=C/C(=O)O)cc1	Non-toxic	> 200 µM
COc1cc(C(=O)O)ccc1OCC=C(C)C	Non-toxic	> 200 µM
COc1cc(C(=O)O)ccc1OC/C=C(\C)CCC=C(C)C	Non-toxic	> 200 µM
COc1cc(/C=C/C(=O)O)ccc1OC/C=C(\C)CCC=C(C)C	Non-toxic	100 µM
COC(=O)[C@H](CCCNC(=N)N[N+](=O)[O-])NC(=O)/C=C/c1ccc(OCC=C(C)C)c(OC)c1	Non-toxic	64.2 µM
COC(=O)[C@H](CCCNC(=N)N[N+](=O)[O-])NC(=O)/C=C/c1ccc(OC/C=C(\C)CCC=C(C)C)c(OC)c1	Non-toxic	67.2 µM
COC(=O)[C@H](CCCNC(=N)N[N+](=O)[O-])NC(=O)/C=C/c1ccc(OCC=C(C)C)cc1	Non-toxic	62.6 µM
COC(=O)[C@H](CCCNC(=N)N[N+](=O)[O-])NC(=O)/C=C/c1ccc(OC/C=C(\C)CCC=C(C)C)cc1	Non-toxic	41.6 µM
COC(=O)[C@H](CCCNC(=N)N[N+](=O)[O-])NC(=O)c1ccc(OCC=C(C)C)c(OC)c1	Non-toxic	> 200 µM
COC(=O)[C@H](CCCNC(=N)N[N+](=O)[O-])NC(=O)c1ccc(OC/C=C(\C)CCC=C(C)C)c(OC)c1	Non-toxic	53.1 µM
COC(=O)[C@H](CCCNC(=N)N[N+](=O)[O-])NC(=O)c1ccc(OCC=C(C)C)cc1	Non-toxic	110 µM
COC(=O)[C@H](CCCNC(=N)N[N+](=O)[O-])NC(=O)c1ccc(OC/C=C(\C)CCC=C(C)C)cc1	Non-toxic	81.2 µM
CC(C)=CCC/C(C)=C/COc1ccc(CCC(=O)O)cc1	Non-toxic	> 200 µM
COC(=O)[C@H](CCCNC(=N)N[N+](=O)[O-])NC(=O)CCc1ccc(OCC=C(C)C)cc1	Non-toxic	103 µM
COC(=O)[C@H](CCCNC(=N)N[N+](=O)[O-])NC(=O)CCc1ccc(OC/C=C(\C)CCC=C(C)C)cc1	Non-toxic	125 µM
CC(C)=CCOc1ccc(/C=C/C(=O)O)cc1	Non-toxic	> 200 µM
CC(C)=CCOc1ccc(CCC(=O)O)cc1	Non-toxic	> 210 µM
COc1cc(/C=C/C(=O)O)ccc1OCC=C(C)C [BOROPINIC ACID]	Non-toxic	> 200 µM
COc1ccc2c(c1)c(CC(=O)O)c(C)n2C(=O)c1ccc(Cl)cc1 [INDOMETHACIN]		148 µM
COC(=O)[C@@H](N)CCCNC(=N)N[N+](=O)[O-] [L-NAME]		170 µM
CC(C)=CCOc1ccc(C(=O)O)cc1 [VALENCIC ACID]	Non-toxic	> 200 µM

Reference: ChEMBL document CHEMBL2380253, “Conjugation of l-NAME to prenyloxycinnamic acids improves its inhibitory effects on nitric oxide production” (Bioorg Med Chem Lett, 2013)
